How the values were obtained:
[1] = post-infarction rats, border zone around the infarct; cited from earlier work
[2] = Double-blind DITPA versus placebo study in patients with congestive heart failure: clinical effects and tolerability; format: in vivo, human; conditions: for Weight: baseline 98.7 ± 6.6, mean ± SE; for NY Heart Association functional class: baseline 2.5 ± 0.2; for Diastolic Blood Pressure: baseline 75.8 ± 4.2; for Heart Rate: baseline 81.3 ± 4.4; for Systolic Blood Pressure: baseline 122.8 ± 4.9
Experimental: (§1) In clinical trials discussed below wherein DITPA was orally administered to volunteers and patients, the DITPA was mixed under the supervision of a registered pharmacist with lactose and packed into gelatin capsules containing 50 mg of the active ingredient. Identical capsules were packed with lactose to serve as placebo medication.
Patients were eligible for enrollment in these clinical studies if they had symptoms of heart failure and an ejection fraction of less than 35%. Patients were required to be in sinus rhythm. Treatment with digitalis, angiotensin converting enzyme inhibitors, and diuretics were allowed, but β-adrenergic blocking agents were not permitted.
Three patients in the placebo group and one patient receiving DITPA were taking an HMG-CoA reductase inhibitor. Patients were excluded from the study if they were receiving amiodarone, had unstable angina, myocardial infarction within 6 months, significant aortic stenosis, hepatic or renal insufficiency, anemia (hematocrit<30%), pre-existent thyroid disease, sensitivity to iodine, active cancer or any other life-threatening disease.
(§2) All patients were hospitalized before initiating treatment and a right heart catheterization, radionuclide ejection fraction and echocardiogram were performed. Serum samples were drawn for measurement of thyrotropin, total T4, free T4, and reverse T3.
(§3) DITPA cross-reacted with antibodies for detection of T3, which consequently was not measured. Renal and hepatic function tests also were performed. Patients were randomly assigned in double-blind fashion to receive either DITPA at a dosage of 1.875 mg/kg daily or placebo in two or three divided doses. For the first four days of drug administration patients were monitored on a telemetry unit. Thereafter, weekly electrocardiograms were performed and patients were examined for changes in thyroid or cardiac status or evidence of drug toxicity.
(§4) At the end of two weeks an echocardiogram was obtained. If there was no clinical evidence of progression of heart failure or development of an arrhythmia the dose of DITPA was increased to 3.75 mg/kg daily. After an additional two weeks of treatment with the higher dosage of the drug patients were readmitted to the hospital and the tests performed in the initial evaluation were repeated.
M-mode, two-dimensional, and Doppler echocardiograms were obtained with an ultrasonographic system equipped with a […] transducer (GE VingMed, Milwaukee, Wis.) according to the recommendation of the American Society of Echocardiography. Ejection fraction was measured by gated radionuclide myocardial imaging.
Twenty-two patients underwent the initial right heart catheterization and were randomized to receive the subject drug or placebo. Nineteen patients completed the study (mean age 61.6, range 47 to 76). Patient functional classes, according to the New York Heart Association classification were II (n=12), III (n=7). One patient had dilated cardiomyopathy. The remaining patients had coronary artery disease, which was considered to be the most likely etiology of congestive heart failure. There was one death in a patient receiving placebo. One patient in the DITPA group was withdrawn because of abdominal pain and subsequently found to have cholelithiasis.

[3] = Heart failure patients: serum thyroid function tests; format: in vivo, human; conditions: for Thyrotropin: baseline 2.47 ± 0.6; for FreeT4: baseline 1.19 ± 0.1; for ReverseT3: baseline 197 ± 27
Experimental: as §2, §3, §4
Right heart catheterization was performed after the patient had been fasted overnight; no premedication was given. Pulmonary artery, pulmonary capillary wedge and right heart pressures were measured with a 7 Fr Swan-Ganz catheter introduced into the right femoral vein. Blood pressures were recorded with an automated arm cuff system. After an initial stabilization period of 20 to 30 minutes, the resting hemodynamic measurements were obtained. Thermodilution cardiac output measurements were averaged from five recordings after discarding the highest and lowest values. All blood tests were performed in the Clinical Pathology Laboratory at the Southern Arizona Veterans Administration Health Care System.

[4] = tested on: single myocytes from infarcted rabbit hearts; conditions: cited from earlier work
[5] = Cardiac performance, chronotropic and metabolic effect compared with L-thyroxine (background); format: in vivo
From the text: Because of potential adverse effects of thyroid hormone, such as metabolic stimulation and tachycardia, what is required are thyroid hormone analogs with fewer undesirable side effects. […] Like thyroid hormone, DITPA binds to nuclear T3 receptors of the c-erbA proto-oncogene family.

[6] = normal primates; cited from earlier work
[7] = Dose-ranging study of DITPA in normal volunteers: clinical variables and tolerability; format: in vivo, human; conditions: for Weight: normal volunteers n=7, oral, baseline 84.2 ± 2.6; for Weight / Heart Rate / Diastolic Blood Pressure / Systolic Blood Pressure: mean ± SE; for Heart Rate: baseline 55.4 ± 2.9; for Diastolic Blood Pressure: baseline 77.1 ± 3.5; for Systolic Blood Pressure: baseline 121.3 ± 4.4
Experimental: as §1
A dose-ranging study was performed with seven (7) normal volunteers. Study participants comprised men between the ages of 18 and 65 years of age. Before participating in the study, a complete physical examination, electrocardiogram, and echocardiogram were obtained. A complete blood count (CBC), blood chemistries (including liver enzymes and lipids profile), and thyroid function studies (total T3, total T4, free T4, rT3, and thyrotropin) were measured.
On day 1, these normal volunteers were started on 1.875 mg/kg in two divided doses per day. This treatment regimen was continued for two weeks. At the end of the second week, the initial laboratory studies were repeated. The dose was then doubled to 3.75 mg/kg and the volunteers were treated for two additional weeks. At the end of this time physical examination and all laboratory variables again were measured.
Volunteer data were analyzed using Student's paired t-test. Baseline data in DITPA and placebo groups were compared by Student's unpaired t-test. Comparison of placebo and drug treated groups was made by repeated measures ANOVA (SPSS Version 9.5, SPSS Chicago, 11). If P values for drug-time interactions were significant a priori contrasts were performed of the drug-time interaction for two weeks versus baseline. When data were available only at baseline and four week, comparisons were made by difference scores. Baseline values for each participant were subtracted from values after four weeks of treatment and the differences between DITPA and placebo treatments then were compared. P values by two-tailed testing less than 0.05 were considered to be significant.
As noted above, seven normal volunteers received DITPA at two dosage levels for two and four weeks.

[8] = heart failure patients, after 2 weeks (1.875 mg/kg daily)
[9] = heart failure patients, after 4 weeks (3.75 mg/kg daily)
[10] = serum, after 2 weeks (1.875 mg/kg daily)
[11] = serum, after 4 weeks (3.75 mg/kg daily)
[12] = normal volunteers, after 2 weeks (1.875 mg/kg/day)
[13] = normal volunteers, after 4 weeks (3.75 mg/kg/day)

O=C(O)CCc1cc(I)c(Oc2ccc(O)cc2)c(I)c1 [DITPA, 3,5-Diiodothyropropionic acid]
capillary growth [1]: increase in capillary growth | arrhythmias ([2]; heart failure patients): No arrhythmias were noted | clinical manifestations of hyperthyroidism ([2]; heart failure patients): not observed | frequency or severity of anginal attacks ([2]; heart failure patients): no increase in frequency or severity of anginal attacks | Weight ([2]; heart failure patients n=9, after 4 weeks (last 2 weeks 3.75 mg/kg daily)): 94.7 ± 18.8 kg | Weight ([2]; heart failure patients n=9, oral, after 2 weeks (1.875 mg/kg daily)): 98.2 ± 19.3 kg | decrease in body weight ([2]; heart failure patients, DITPA group, after 4 weeks, P=0.059 vs placebo): 4 kg | NY Heart Association functional class [2, 8]: 2.4 ± 0.2 | Diastolic Blood Pressure [2, 8]: 65.7 ± 3.3 mm Hg | Heart Rate [2, 8]: 83.4 ± 6.5 beats/min | Systolic Blood Pressure [2, 8]: 116.2 ± 7.4 mm Hg | NY Heart Association functional class [2, 9]: 2.5 ± 0.2 | Radionuclide Ejection Fraction ([2]; heart failure patients, after 4 weeks (3.75 mg/kg daily), baseline 18.1 ± 2.4): 20.6 ± 3.2% | Diastolic Blood Pressure [2, 9]: 66.4 ± 3.6 mm Hg | Heart Rate [2, 9]: 82.2 ± 4.7 beats/min | Systolic Blood Pressure [2, 9]: 119.1 ± 6.1 mm Hg | tolerability ([2]; patients with ischemic heart disease / heart failure): well tolerated | Thyrotropin ([3]; heart failure patients n=9, serum, after 2 weeks (1.875 mg/kg daily)): 0.04 ± 01^++ mU/L | FreeT4 [3, 10]: 1.17 ± 0.1^ ng/dL | ReverseT3 [3, 10]: 477 ± 83^++ ng/dL | FreeT4 [3, 11]: 1.17 ± 0.15 ng/dL | Thyrotropin [3, 11]: 0.018 ± 0.0004 mU/L | ReverseT3 [3, 11]: 559 ± 108 ng/dL | calcium transport in the sarcoplasmic reticulum (SR) ([4]; post-infarction heart failure in rabbits): enhances calcium transport in the sarcoplasmic reticulum (SR) | contraction-frequency relationship ([4]; single myocytes from infarcted rabbit hearts): prevents the flattened contraction-frequency relationship | chronotropic effect relative to L-thyroxine ([5]; at increased cardiac performance): approximately half of the chronotropic effect | metabolic stimulation relative to L-thyroxine ([5]; in vivo): less metabolic stimulation than L-thyroxine | in vivo force-frequency and relaxation-frequency relationships [6]: enhances the in vivo force-frequency and relaxation-frequency relationships | echocardiographic parameters ([7]; normal volunteers): not changed significantly | Weight ([7]; after 2 weeks (1.875 mg/kg/day)): 83.5 ± 2.6 kg | Weight ([7]; after 4 weeks (last 2 weeks 3.75 mg/kg/day)): 83.6 ± 2.6 kg | adverse effects ([7]; normal volunteers, 1.875 then 3.75 mg/kg, four weeks): no adverse effects were noted | Heart Rate [7, 12]: 58.1 ± 3.2 beats/min | Diastolic Blood Pressure [7, 12]: 76.1 ± 2.9 mm Hg | Systolic Blood Pressure [7, 12]: 122.0 ± 5.4 mm Hg | Heart Rate [7, 13]: 64.3 ± 3.4 beats/min | Diastolic Blood Pressure [7, 13]: 71.6 ± 3.8 mm Hg | Systolic Blood Pressure [7, 13]: 116.3 ± 6.1 mm Hg | changes in blood pressure and pulse rate ([7]; normal volunteers, at either dose): no significant changes | tolerability ([7]; normal volunteers, both doses): well tolerated
